Consider three compounds from ChEMBL document CHEMBL6071181, “Discovery of ZLC491 as a Potent, Selective, and Orally Bioavailable CDK12/13 PROTAC Degrader” (J Med Chem, 2024).

The source made the active and inactive calls. The calls are words filed in the database; no cut-off is given here.

Series [1] concerns the target T1, Protein cereblon/Cyclin-dependent kinase 12 (Homo sapiens) (UniProt Q9NYV4+Q96SW2). The experiment in a line: PROTAC activity at CRBN/CDK12 in human MDA-MB-231 cells assessed as induction of CDK12 degradation at 0.3 uM incubated for 15 hrs by immunoblotting analysis relative to control. It counts as cell-based.
Target sequence in this assay (Q96SW2 whole entry, looked up, chain 1 of 2): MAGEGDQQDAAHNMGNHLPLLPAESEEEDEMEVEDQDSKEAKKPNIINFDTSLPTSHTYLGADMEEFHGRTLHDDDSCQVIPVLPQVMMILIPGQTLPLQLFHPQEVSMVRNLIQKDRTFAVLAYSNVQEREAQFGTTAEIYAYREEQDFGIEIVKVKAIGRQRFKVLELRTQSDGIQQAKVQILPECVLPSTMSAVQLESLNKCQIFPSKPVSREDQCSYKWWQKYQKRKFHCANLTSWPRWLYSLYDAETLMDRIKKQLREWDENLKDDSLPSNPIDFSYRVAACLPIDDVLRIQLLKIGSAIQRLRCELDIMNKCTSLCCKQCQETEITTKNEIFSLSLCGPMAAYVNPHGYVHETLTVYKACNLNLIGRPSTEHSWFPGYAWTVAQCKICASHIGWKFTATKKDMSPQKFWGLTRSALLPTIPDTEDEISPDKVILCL
Target sequence in this assay (Q9NYV4 whole entry, looked up, chain 2 of 2): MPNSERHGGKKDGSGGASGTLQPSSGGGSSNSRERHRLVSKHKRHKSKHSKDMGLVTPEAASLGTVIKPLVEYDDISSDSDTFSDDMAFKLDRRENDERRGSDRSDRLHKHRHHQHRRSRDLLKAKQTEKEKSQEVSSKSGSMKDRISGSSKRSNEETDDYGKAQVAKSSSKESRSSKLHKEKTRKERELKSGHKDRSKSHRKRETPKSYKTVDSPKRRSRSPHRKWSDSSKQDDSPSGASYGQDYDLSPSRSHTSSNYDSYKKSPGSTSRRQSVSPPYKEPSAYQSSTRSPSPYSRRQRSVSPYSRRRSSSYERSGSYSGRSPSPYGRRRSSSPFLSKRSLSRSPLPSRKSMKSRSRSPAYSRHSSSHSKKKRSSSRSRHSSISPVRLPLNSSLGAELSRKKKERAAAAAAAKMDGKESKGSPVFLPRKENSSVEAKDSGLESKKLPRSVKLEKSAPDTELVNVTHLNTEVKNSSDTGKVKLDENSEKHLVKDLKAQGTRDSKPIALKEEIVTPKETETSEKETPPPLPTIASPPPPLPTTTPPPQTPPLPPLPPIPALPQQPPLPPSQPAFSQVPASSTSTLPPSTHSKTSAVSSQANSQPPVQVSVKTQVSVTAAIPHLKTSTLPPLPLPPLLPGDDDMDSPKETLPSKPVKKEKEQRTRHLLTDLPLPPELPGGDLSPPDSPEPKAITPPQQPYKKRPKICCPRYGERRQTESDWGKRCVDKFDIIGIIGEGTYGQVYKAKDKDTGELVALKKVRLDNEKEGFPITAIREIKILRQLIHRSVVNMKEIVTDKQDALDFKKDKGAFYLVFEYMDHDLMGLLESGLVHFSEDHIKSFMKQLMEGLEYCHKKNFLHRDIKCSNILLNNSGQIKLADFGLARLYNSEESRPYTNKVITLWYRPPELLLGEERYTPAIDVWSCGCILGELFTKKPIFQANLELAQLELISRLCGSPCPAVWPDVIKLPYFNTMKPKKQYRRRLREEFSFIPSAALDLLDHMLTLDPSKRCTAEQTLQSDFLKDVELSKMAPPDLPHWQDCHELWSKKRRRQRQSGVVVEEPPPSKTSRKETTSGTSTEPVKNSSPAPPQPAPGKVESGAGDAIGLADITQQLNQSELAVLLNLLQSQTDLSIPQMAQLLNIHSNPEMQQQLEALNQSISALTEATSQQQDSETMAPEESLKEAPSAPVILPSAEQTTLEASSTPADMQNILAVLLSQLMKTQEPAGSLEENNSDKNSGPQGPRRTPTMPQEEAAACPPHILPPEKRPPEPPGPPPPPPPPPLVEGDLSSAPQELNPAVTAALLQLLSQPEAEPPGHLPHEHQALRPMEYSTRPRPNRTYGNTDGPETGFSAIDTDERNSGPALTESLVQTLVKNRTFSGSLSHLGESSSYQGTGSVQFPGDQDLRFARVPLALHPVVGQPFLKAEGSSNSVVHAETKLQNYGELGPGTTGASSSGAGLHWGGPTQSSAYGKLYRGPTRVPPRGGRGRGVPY
In series [2] the target is T2, Protein cereblon/Cyclin-dependent kinase 13 (Homo sapiens) (UniProt Q14004+Q96SW2). The experiment in a line: PROTAC activity at CRBN/CDK13 in human MDA-MB-231 cells assessed as induction of CDK13 degradation at 0.3 uM incubated for 15 hrs by immunoblotting analysis relative to control. The format is cell-based.
Target sequence in this assay (Q96SW2 whole entry, looked up, chain 1 of 2): as the sequence (Q96SW2 whole entry, looked up, chain 1 of 2) above
Target sequence in this assay (Q14004 whole entry, looked up, chain 2 of 2): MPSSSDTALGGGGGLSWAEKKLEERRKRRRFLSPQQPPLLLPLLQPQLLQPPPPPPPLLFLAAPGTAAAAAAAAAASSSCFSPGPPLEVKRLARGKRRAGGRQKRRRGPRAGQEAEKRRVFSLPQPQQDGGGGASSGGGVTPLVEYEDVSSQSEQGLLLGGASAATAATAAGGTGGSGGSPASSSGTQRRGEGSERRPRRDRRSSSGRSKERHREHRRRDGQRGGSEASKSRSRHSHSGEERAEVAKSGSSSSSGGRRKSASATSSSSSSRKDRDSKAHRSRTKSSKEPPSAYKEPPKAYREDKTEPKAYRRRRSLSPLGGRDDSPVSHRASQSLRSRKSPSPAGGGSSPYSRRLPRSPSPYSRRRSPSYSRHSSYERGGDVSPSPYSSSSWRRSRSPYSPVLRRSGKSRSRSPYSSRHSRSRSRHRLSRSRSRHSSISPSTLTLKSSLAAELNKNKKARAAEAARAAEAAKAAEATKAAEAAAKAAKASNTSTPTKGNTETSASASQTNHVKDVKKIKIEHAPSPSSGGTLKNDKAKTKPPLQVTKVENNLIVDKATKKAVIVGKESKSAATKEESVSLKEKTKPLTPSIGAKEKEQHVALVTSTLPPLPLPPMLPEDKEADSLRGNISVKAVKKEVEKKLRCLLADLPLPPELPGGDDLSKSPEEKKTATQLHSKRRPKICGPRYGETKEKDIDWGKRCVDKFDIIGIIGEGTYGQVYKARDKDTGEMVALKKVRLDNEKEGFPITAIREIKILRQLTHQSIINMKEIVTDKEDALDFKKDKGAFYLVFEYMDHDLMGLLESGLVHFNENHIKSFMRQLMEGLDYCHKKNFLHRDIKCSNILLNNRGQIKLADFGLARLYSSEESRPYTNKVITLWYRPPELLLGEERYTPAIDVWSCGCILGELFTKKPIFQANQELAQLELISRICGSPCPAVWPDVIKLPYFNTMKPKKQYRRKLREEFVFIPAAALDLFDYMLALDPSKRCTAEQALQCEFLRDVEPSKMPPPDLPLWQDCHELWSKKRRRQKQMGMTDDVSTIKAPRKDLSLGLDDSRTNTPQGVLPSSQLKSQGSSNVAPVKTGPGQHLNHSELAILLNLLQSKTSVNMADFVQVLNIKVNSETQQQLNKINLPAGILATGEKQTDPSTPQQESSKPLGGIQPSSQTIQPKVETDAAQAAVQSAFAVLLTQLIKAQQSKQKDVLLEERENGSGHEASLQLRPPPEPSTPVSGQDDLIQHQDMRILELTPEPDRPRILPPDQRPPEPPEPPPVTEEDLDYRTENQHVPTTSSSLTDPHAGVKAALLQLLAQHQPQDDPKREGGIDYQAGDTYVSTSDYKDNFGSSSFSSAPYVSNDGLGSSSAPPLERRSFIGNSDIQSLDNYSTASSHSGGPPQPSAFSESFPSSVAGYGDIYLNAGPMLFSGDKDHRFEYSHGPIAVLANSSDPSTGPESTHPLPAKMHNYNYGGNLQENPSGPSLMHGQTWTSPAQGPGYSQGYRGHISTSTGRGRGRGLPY
The target in series [3] is T1, Protein cereblon/Cyclin-dependent kinase 12 (Homo sapiens). In words: PROTAC activity at CRBN/CDK12 in human MDA-MB-231 cells assessed as induction of CDK12 degradation at 1 uM incubated for 10 hrs by immunoblotting analysis. The format is cell-based.
Target sequence in this assay (Q96SW2 whole entry, looked up): as the sequence (Q96SW2 whole entry, looked up, chain 1 of 2) above
Target sequence in this assay (Q9NYV4 whole entry, looked up): as the sequence (Q9NYV4 whole entry, looked up, chain 2 of 2) above
Series [4] deals with T2, Protein cereblon/Cyclin-dependent kinase 13 (Homo sapiens). The experiment in a line: PROTAC activity at CRBN/CDK13 in human MDA-MB-231 cells assessed as induction of CDK13 degradation at 1 uM incubated for 10 hrs by immunoblotting analysis. It counts as cell-based.
Target sequence in this assay (Q14004 whole entry, looked up): as the sequence (Q14004 whole entry, looked up, chain 2 of 2) above
Target sequence in this assay (Q96SW2 whole entry, looked up): as the sequence (Q96SW2 whole entry, looked up, chain 1 of 2) above
In another series the test system is MDA-MB-231. The experiment in a line: Antiproliferative activity against human MDA-MB-231 cells assessed as inhibition of cell growth at 0.0001 to 100 uM incubated for 5 days by CCK8 assay. It counts as functional, cell-based. As to conditions: dose 0.0001-100 µM, time 5.0 day.
The test system of a further series is HCC38. In words: Antiproliferative activity against human HCC38 cells assessed as inhibition of cell growth at 0.0001 to 100 uM incubated for 5 days by CCK8 assay. To be noted: dose 0.0001-100 µM, time 5.0 day. The format is functional, cell-based.
The subject of another series is MDA-MB-436. The experiment in a line: Antiproliferative activity against human MDA-MB-436 cells assessed as inhibition of cell growth at 0.0001 to 100 uM incubated for 5 days by CCK8 assay. The format is functional, cell-based. To be noted: dose 0.0001-100 µM, time 5.0 day.
A further series deals with MCF-10A. In words: Antiproliferative activity against human MCF-10A cells assessed as inhibition of cell growth at 0.0001 to 100 uM incubated for 5 days by CCK8 assay. As to conditions: 120 h, dose 0.0001-100 µM, time 5 day. It counts as toxicity, cell-based.
For the next series, the system named is HEK293. In words: Antiproliferative activity against HEK293 cells assessed as inhibition of cell growth at 0.0001 to 100 uM incubated for 5 days by CCK8 assay. To be noted: human, hek293, 120 h, dose 0.0001-100 µM, time 5 day. It counts as toxicity, cell-based.
For another series, the system named is MRC5. The experiment in a line: Antiproliferative activity against human MRC5 cells assessed as inhibition of cell growth at 0.0001 to 100 uM incubated for 5 days by CCK8 assay. The format is toxicity, cell-based. To be noted: mrc5, 120 h, dose 0.0001-100 µM, time 5 day.
Series [5] in a line: Half-life in Sprague-Dawley rat at 2.5 mg/kg, iv measured after 24 hrs by LC/MS/MS analysis. It counts as ADME, organism-based. As to conditions: in vivo.
The nature of series [6]: Cmax in Sprague-Dawley rat at 2.5 mg/kg, iv measured after 24 hrs by LC/MS/MS analysis. To be noted: in vivo. The format is ADME, organism-based.
Series [7] is described as follows: AUC (0 to t) in Sprague-Dawley rat at 2.5 mg/kg, iv measured after 24 hrs by LC/MS/MS analysis. The format is ADME, organism-based. To be noted: in vivo.
The nature of series [8]: Half-life in Sprague-Dawley rat at 10 mg/kg, po measured after 24 hrs by LC/MS/MS analysis. The format is ADME, organism-based. As to conditions: in vivo.
Series [9] in a line: Cmax in Sprague-Dawley rat at 10 mg/kg, po measured after 24 hrs by LC/MS/MS analysis. As to conditions: in vivo. The format is ADME, organism-based.
Series [10] is described as follows: AUC (0 to t) in Sprague-Dawley rat at 10 mg/kg, po measured after 24 hrs by LC/MS/MS analysis. It counts as ADME, organism-based. To be noted: in vivo.

On to “3-benzyl-1-((1r,4r)-4-((5-cyanopyridin-2-yl)amino)cyclohexyl)-1-(4-(4-(1-(2-(2,6-dioxopiperidin-3-yl)-1,3-dioxoisoindolin-5-yl)azetidine-3-carbonyl)piperazin-1-yl)phenyl)urea”, for which the Activity was 35% in series [1] and 38% in series [2].

With `CN1C(=O)CCC(N2C(=O)c3cc(F)c(N4CCC(N5CCN(c6ccc(N(C(=O)NCc7ccccc7)[C@H]7CC[C@H](Nc8ccc(C#N)cn8)CC7)cc6)CC5)CC4)cc3C2=O)C1=O` (stereo partly specified), the result (in series [3]; in series [4]; in the series with MDA-MB-231; in the series on HCC38; with MDA-MB-436) was inactive. The Activity result in the series with MCF-10A, with HEK293 and with MRC5 was “Non-Toxic” in each case.

Consider `N#Cc1ccc(N[C@H]2CC[C@H](N(C(=O)NCc3ccccc3)c3ccc(N4CCN(C5CCN(c6ccc7c(c6)C(=O)N(C6CCC(=O)NC6=O)C7=O)CC5)CC4)cc3)CC2)nc1` (stereo partly specified), for which the half-life was 2.38 h in series [5] and 3.04 h in [8]. Also, the peak concentration (Cmax) in series [6] was determined as 2590 ng/mL; in series [9], 308 ng/mL. Further, the exposure AUC(0-t) at 24 h is 4720 ng·h/mL in series [7] and 3110 ng·h/mL in series [10].
